Numbered stars: 1 amine (or outer) side, 2 acyl side, 3 side chain; on linkers, the order of the positions; unused ones are H or OH. Peptide text beside a SMILES is read from it. * marks the point of attachment. C20 diacid = O=C(O)CCCCCCCCCCCCCCCCCCC(=O)*; C18 diacid = O=C(O)CCCCCCCCCCCCCCCCC(=O)*; γGlu = O=C(O)[C@H](CCC(=O)[*:2])N[*:1]
Assays:
[1] = Solubility in 100 mM bistrispropane buffer at pH 6.0 incubated for 18 hrs by UPLC analysis; type: physicochemical
Calcitonin receptor [2] = target: T1, Calcitonin receptor (Homo sapiens, UniProt P30988); assay: Agonist activity at human calcitonin receptor expressed in BHK570 cells assessed as increase in intracellular cAMP concentration incubated for 3 hrs in absence of albumin by CRE luciferase reporter gene assay; type: functional, cell-based
T1 sequence (P30988 whole entry): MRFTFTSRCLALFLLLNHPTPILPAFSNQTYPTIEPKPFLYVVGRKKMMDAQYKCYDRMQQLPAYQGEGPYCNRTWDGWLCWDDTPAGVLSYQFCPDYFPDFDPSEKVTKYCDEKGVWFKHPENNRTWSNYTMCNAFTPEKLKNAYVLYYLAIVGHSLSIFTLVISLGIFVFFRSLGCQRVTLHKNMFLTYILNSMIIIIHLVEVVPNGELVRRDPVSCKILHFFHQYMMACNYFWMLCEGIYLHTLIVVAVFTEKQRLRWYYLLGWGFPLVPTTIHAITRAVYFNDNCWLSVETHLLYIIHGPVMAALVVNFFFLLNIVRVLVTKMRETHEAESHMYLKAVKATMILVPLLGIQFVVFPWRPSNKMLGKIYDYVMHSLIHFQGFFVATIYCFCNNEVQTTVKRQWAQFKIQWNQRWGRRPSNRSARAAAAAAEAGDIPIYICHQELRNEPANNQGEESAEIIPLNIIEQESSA

[3] = Solubility in 100 mM bistrispropane buffer at pH 7.0 incubated for 18 hrs by UPLC analysis; type: physicochemical
[4] = Solubility in 100 mM glycylglycine buffer at pH 5.0 incubated for 18 hrs by UPLC analysis; type: physicochemical
[5] = target: T2, Amylin receptor AMY3; CALCR/RAMP3 (Homo sapiens, UniProt O60896+P30988); assay: Agonist activity at human amylin receptor expressed in BHK570 cells co-expressing RAMP3 assessed as increase in intracellular cAMP concentration incubated for 3 hrs in absence of albumin by CRE luciferase reporter gene assay; type: functional, cell-based
T2 sequence (P30988 whole entry): T1 sequence (P30988 whole entry)
T2 sequence (O60896 whole entry): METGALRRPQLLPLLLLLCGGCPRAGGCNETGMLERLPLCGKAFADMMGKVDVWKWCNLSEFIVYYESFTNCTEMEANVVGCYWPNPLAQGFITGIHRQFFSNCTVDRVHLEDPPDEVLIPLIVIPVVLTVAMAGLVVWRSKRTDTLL

[6] = Solubility in 100 mM glycylglycine buffer at pH 4.0 incubated for 18 hrs by UPLC analysis; type: physicochemical
[7] = target: T2, Amylin receptor AMY3; CALCR/RAMP3; assay: Displacement of [125I]-labeled rat amylin from human amylin receptor expressed in BHK tkts13 whole cells co-expressing RAMP3 incubated for 60 mins by scintillation proximity assay; type: cell-based
[8] = Solubility in 100 mM glycylglycine buffer at pH 3.0 incubated for 18 hrs by UPLC analysis; type: physicochemical
[9] = Solubility in 100 mM bistrispropane buffer at pH 6.5 incubated for 18 hrs by UPLC analysis; type: physicochemical
[10] = Solubility in 100 mM bistrispropane buffer at pH 8.0 incubated for 18 hrs by UPLC analysis; type: physicochemical
[11] = Solubility in 100 mM bistrispropane buffer at pH 7.5 incubated for 18 hrs by UPLC analysis; type: physicochemical
Calcitonin receptor [12] = target: T1, Calcitonin receptor; assay: Agonist activity at human calcitonin receptor expressed in BHK570 cells assessed as increase in intracellular cAMP concentration incubated for 3 hrs in presence of 10% FBS by CRE luciferase reporter gene assay; type: functional, cell-based

CC(C)C[C@H](NC(=O)[C@H](CCC(=O)O)NC(=O)[C@H](Cc1cnc[nH]1)NC(=O)[C@H](CC(C)C)NC(=O)[C@H](CCC(=O)O)NC(=O)[C@H](C)NC(=O)[C@H](CO)NC(=O)[C@H](CC(C)C)NC(=O)[C@H](CCCNC(=N)N)NC(=O)CNC(=O)[C@H](CC(C)C)NC(=O)[C@@H](NC(=O)[C@H](C)NC(=O)[C@@H](NC(=O)[C@H](CO)NC(=O)[C@H](CC(C)C)NC(=O)[C@@H]1CCCN1C(=O)[C@H](CO)NC(=O)[C@H](C)NC(=O)[C@H](CCC(=O)O)NC(=O)CCCCCCCCCCCCCCCCC(=O)O)[C@@H](C)O)C(C)C)C(=O)N[C@@H](C)C(=O)N[C@H](C(=O)N[C@@H](CC(C)C)C(=O)N1CCC[C@H]1C(=O)N[C@@H](CCCNC(=N)N)C(=O)N[C@H](C(=O)N[C@@H](CCC(=O)O)C(=O)N[C@H](C(=O)NCC(=O)N1CCC[C@H]1C(=O)N[C@@H](CCC(=O)O)C(=O)N[C@@H](CO)C(=O)N1CCC[C@H]1C(N)=O)[C@@H](C)O)[C@@H](C)O)[C@@H](C)O ({C18 diacid}-EASPLSTAVLGRLSAELHELATLPRTETGPESP-NH2)
solubility at 18 h [1]: ≥ 200 µM | EC50 (Calcitonin receptor [2]): 0.007 nM | solubility at 18 h [3]: ≥ 200 µM | solubility at 18 h [4]: ≥ 200 µM | EC50 [5]: 0.014 nM | solubility at 18 h [6]: ≥ 200 µM | IC50 [7]: 0.323 nM | solubility at 18 h [8]: ≥ 200 µM | solubility at 18 h [9]: ≥ 200 µM | solubility at 18 h [10]: ≥ 200 µM | solubility at 18 h [11]: ≥ 200 µM

CC(C)C[C@H](NC(=O)[C@H](C)NC(=O)[C@H](C)NC(=O)[C@@H](NC(=O)[C@H](CO)NC(=O)[C@H](CC(C)C)NC(=O)[C@H](CCC(=O)O)NC(=O)[C@H](CO)NC(=O)[C@H](C)NC(=O)CC[C@H](NC(=O)CCCCCCCCCCCCCCCCCCC(=O)O)C(=O)O)[C@@H](C)O)C(=O)NCC(=O)N[C@@H](Cc1cnc[nH]1)C(=O)N[C@@H](CC(C)C)C(=O)N[C@@H](CO)C(=O)N[C@@H](C)C(=O)N[C@@H](CCC(=O)O)C(=O)N[C@@H](CC(C)C)C(=O)N[C@@H](Cc1cnc[nH]1)C(=O)N[C@@H](CCC(=O)O)C(=O)N[C@@H](CC(C)C)C(=O)N[C@@H](C)C(=O)N[C@H](C(=O)N[C@@H](CC(C)C)C(=O)N1CCC[C@H]1C(=O)N[C@@H](Cc1cnc[nH]1)C(=O)N[C@H](C(=O)N[C@@H](CCC(=O)O)C(=O)N[C@H](C(=O)NCC(=O)N[C@H](C(=O)NCC(=O)N[C@H](C(=O)N1CCC[C@H]1C(N)=O)[C@@H](C)O)[C@@H](C)O)[C@@H](C)O)[C@@H](C)O)[C@@H](C)O ({C20 diacid-γGlu}-ASELSTAALGHLSAELHELATLPHTETGTGTP-NH2)
solubility at 18 h [1]: ≥ 200 µM | EC50 (Calcitonin receptor [2]): 0.024 nM | solubility at 18 h [3]: ≥ 200 µM | solubility at 18 h [4]: ≥ 200 µM | EC50 [5]: 0.064 nM | solubility at 18 h [6]: ≥ 200 µM | IC50 [7]: 1.51 nM | solubility at 18 h [8]: ≥ 200 µM | solubility at 18 h [9]: ≥ 200 µM | solubility at 18 h [10]: ≥ 200 µM | solubility at 18 h [11]: ≥ 200 µM

CC(C)C[C@H](NC(=O)[C@H](C)NC(=O)[C@H](C)NC(=O)[C@@H](NC(=O)[C@H](CO)NC(=O)[C@H](CC(C)C)NC(=O)[C@H](CCC(=O)O)NC(=O)[C@H](CO)NC(=O)[C@H](C)NC(=O)CC[C@H](NC(=O)CCCCCCCCCCCCCCCCCCC(=O)O)C(=O)O)[C@@H](C)O)C(=O)NCC(=O)N[C@@H](CCCNC(=N)N)C(=O)N[C@@H](CC(C)C)C(=O)N[C@@H](CO)C(=O)N[C@@H](C)C(=O)N[C@@H](CCC(=O)O)C(=O)N[C@@H](CC(C)C)C(=O)N[C@@H](Cc1cnc[nH]1)C(=O)N[C@@H](CCC(=O)O)C(=O)N[C@@H](CC(C)C)C(=O)N[C@@H](C)C(=O)N[C@H](C(=O)N[C@@H](Cc1ccc(O)cc1)C(=O)N1CCC[C@H]1C(=O)N[C@@H](CCCNC(=N)N)C(=O)N[C@H](C(=O)N[C@@H](CCC(=O)O)C(=O)N[C@H](C(=O)NCC(=O)N[C@@H](CO)C(=O)NCC(=O)N[C@@H](CO)C(=O)N1CCC[C@H]1C(=O)NCC(=O)O)[C@@H](C)O)[C@@H](C)O)[C@@H](C)O ({C20 diacid-γGlu}-ASELSTAALGRLSAELHELATYPRTETGSGSPG-OH)
EC50 (Calcitonin receptor [12]): 0.05 nM | EC50 (Calcitonin receptor [2]): 0.064 nM | EC50 [5]: 0.187 nM | IC50 [7]: 7.26 nM

CC(C)C[C@H](NC(=O)[C@H](C)NC(=O)[C@H](C)NC(=O)[C@@H](NC(=O)[C@H](CO)NC(=O)[C@H](CC(C)C)NC(=O)[C@H](CCC(=O)O)NC(=O)[C@H](CO)NC(=O)[C@H](C)NC(=O)CC[C@H](NC(=O)CCCCCCCCCCCCCCCCCCC(=O)O)C(=O)O)[C@@H](C)O)C(=O)NCC(=O)N[C@@H](CCCNC(=N)N)C(=O)N[C@@H](CC(C)C)C(=O)N[C@@H](CO)C(=O)N[C@@H](C)C(=O)N[C@@H](CCC(=O)O)C(=O)N[C@@H](CC(C)C)C(=O)N[C@@H](Cc1cnc[nH]1)C(=O)N[C@@H](CCC(=O)O)C(=O)N[C@@H](CC(C)C)C(=O)N[C@@H](C)C(=O)N[C@H](C(=O)N[C@@H](Cc1ccc(O)cc1)C(=O)N1CCC[C@H]1C(=O)N[C@@H](CCCNC(=N)N)C(=O)N[C@H](C(=O)N[C@@H](CCC(=O)O)C(=O)N[C@H](C(=O)NCC(=O)N[C@@H](CO)C(=O)NCC(=O)N[C@@H](CO)C(=O)N1CCC[C@H]1C(=O)N[C@@H](CCCCN)C(=O)O)[C@@H](C)O)[C@@H](C)O)[C@@H](C)O ({C20 diacid-γGlu}-ASELSTAALGRLSAELHELATYPRTETGSGSPK-OH)
EC50 (Calcitonin receptor [12]): 0.053 nM | EC50 [5]: 0.239 nM | IC50 [7]: 21 nM

CC(C)C[C@H](NC(=O)CNC(=O)[C@H](CO)NC(=O)[C@H](C)NC(=O)CC[C@H](NC(=O)CCCCCCCCCCCCCCCCCCC(=O)O)C(=O)O)C(=O)N[C@@H](CO)C(=O)N[C@H](C(=O)N[C@@H](C)C(=O)N[C@@H](C)C(=O)N[C@@H](CC(C)C)C(=O)NCC(=O)N[C@@H](CCCNC(=N)N)C(=O)N[C@@H](CC(C)C)C(=O)N[C@@H](CO)C(=O)N[C@H](C(=O)N[C@@H](CCC(=O)O)C(=O)N[C@@H](CC(C)C)C(=O)N[C@@H](Cc1cnc[nH]1)C(=O)N[C@@H](CCC(=O)O)C(=O)N[C@@H](CC(C)C)C(=O)N[C@@H](CCC(=O)O)C(=O)N[C@H](C(=O)N[C@@H](Cc1ccc(O)cc1)C(=O)N1CCC[C@H]1C(=O)N[C@@H](CCCNC(=N)N)C(=O)N[C@H](C(=O)N[C@@H](CCC(=O)O)C(=O)N[C@H](C(=O)NCC(=O)N[C@@H](CO)C(=O)NCC(=O)N[C@H](C(=O)N[C@@H](Cc1ccc(O)cc1)C(N)=O)[C@@H](C)O)[C@@H](C)O)[C@@H](C)O)[C@@H](C)O)[C@@H](C)O)[C@@H](C)O ({C20 diacid-γGlu}-ASGLSTAALGRLSTELHELETYPRTETGSGTY-NH2)
solubility at 18 h [1]: ≥ 200 µM | EC50 (Calcitonin receptor [12]): 0.067 nM | EC50 (Calcitonin receptor [2]): 0.018 nM | solubility at 18 h [3]: ≥ 200 µM | EC50 [5]: 0.054 nM | IC50 [7]: 0.431 nM | solubility at 18 h [8]: ≥ 200 µM | solubility at 18 h [9]: ≥ 200 µM | solubility at 18 h [10]: ≥ 200 µM | solubility at 18 h [11]: ≥ 200 µM

— ChEMBL document CHEMBL4420076, “Amylin and calcitonin receptor agonist” (2017)
